In ChEMBL document CHEMBL5537201, “Discovery of Unique Bis-Substituted Aromatic Amide Derivatives as Novel Highly Potent Antibiotics for Combating Methicillin-Resistant Staphylococcus aureus (MRSA)” (J Med Chem, 2024):
Converted amounts (≈) assume the structure as drawn. The source made the active and inactive calls. No cut-off for these calls is given here.

Columns and labels:
Staphylococcus aureus [1] = experiment: Antimicrobial activity against methicillin resistant Staphylococcus aureus clinical isolate MRS207 assessed as reduction in bacterial growth incubated for 24 hrs by two-fold broth dilution method; type: functional
Staphylococcus aureus [2] = experiment: Antimicrobial activity against Staphylococcus aureus ATCC6538 assessed as membrane fluidity measured after 35 mins; type: functional, organism-based
Staphylococcus aureus [3] = experiment: Antimicrobial activity against methicillin resistant Staphylococcus aureus clinical isolate MRS23 assessed as reduction in bacterial growth incubated for 24 hrs by two-fold broth dilution method; type: functional
[4] = Toxicity in BALB/c mouse assessed as effect on body weight at 50 mg/kg, iv measured upto 8 days; type: organism-based; conditions: in vivo, 192 h, time < 8 day
Staphylococcus aureus [5] = experiment: In vivo antibacterial activity against methicillin-resistant Staphylococcus aureus clinical isolate MRS153 infected in C57BL/6N mouse model assessed as reduction in bacterial load in liver at 3.125 to 12.5 mg/kg, iv measured after 24 hrs; type: functional, organism-based; conditions: dose 3.125-12.5 mg/kg
Staphylococcus aureus [6] = experiment: Antimicrobial activity against vancomycin-resistant Staphylococcus aureus assessed as reduction in bacterial growth incubated for 24 hrs by two-fold broth dilution method; type: functional
Staphylococcus aureus [7] = experiment: Bactericidal activity against norfloxacin-resistant Staphylococcus aureus ATCC6538 at 5 ug/ml measured upto 150 mins; type: functional, organism-based; conditions: dose 5.0 µg/ml
Staphylococcus aureus [8] = experiment: Binding affinity to Staphylococcus aureus ATCC6538 Phosphatidylglycerol assessed as change in MIC at upto 256 ug/ml measured after 22 hrs; conditions: dose <= 256.0 µg/ml
Staphylococcus aureus [9] = experiment: Antimicrobial activity against methicillin resistant Staphylococcus aureus clinical isolate MRS153 assessed as increase in ROS levels measured upto 90 mins by H2DCFDA probe based flow cytometry; type: functional, organism-based
Staphylococcus aureus [10] = experiment: Antimicrobial activity against methicillin resistant Staphylococcus aureus clinical isolate MRS84 assessed as reduction in bacterial growth incubated for 24 hrs by two-fold broth dilution method; type: functional
Staphylococcus aureus [11] = experiment: Antimicrobial activity against methicillin resistant Staphylococcus aureus clinical isolate MRS153 assessed as proton dynamic dissipation at pH 5 to 11; type: functional, organism-based
Staphylococcus aureus [12] = experiment: Antimicrobial activity against Staphylococcus aureus ATCC6538 assessed as reduction in bacterial growth incubated for 24 hrs by two-fold broth dilution method; type: functional
Staphylococcus aureus [13] = experiment: Antimicrobial activity against methicillin resistant Staphylococcus aureus clinical isolate MRS153 assessed as reduction in bacterial growth incubated for 24 hrs by two-fold broth dilution method; type: functional
Cell membrane [14] = experiment: Induction of cytoplasmic membrane depolarization in Staphylococcus aureus ATCC6538 assessed as increase in fluorescence intensity measured upto 120 mins by DiSC3(5) dye based fluorescence method; type: cell membranes
Staphylococcus aureus [15] = experiment: In vivo antibacterial activity against methicillin-resistant Staphylococcus aureus clinical isolate MRS153 infected in C57BL/6N mouse model assessed as reduction in bacterial load in heart at 3.125 to 12.5 mg/kg, iv measured after 24 hrs; type: functional, organism-based; conditions: dose 3.125-12.5 mg/kg
Staphylococcus aureus [16] = experiment: Induction of membrane morphological changes in Staphylococcus aureus ATCC6538 assessed as cell surface wrinkling at 5 times of MIC measured after 0.5 hrs by FE-SEM analysis; type: functional, organism-based
Staphylococcus aureus [17] = experiment: Induction of drug resistance in Staphylococcus aureus ATCC6538 assessed as change in MIC measured after 10 passages; type: functional
[18] = Cytotoxicity against HEK293 cells assessed as reduction in cell viability measured after 24 hrs by CCK-8 method; type: toxicity, cell-based; conditions: human
Staphylococcus aureus [19] = experiment: Antimicrobial activity against methicillin resistant Staphylococcus aureus clinical isolate MRS1 assessed as reduction in bacterial growth incubated for 24 hrs by two-fold broth dilution method; type: functional
Staphylococcus aureus [20] = experiment: Upregulation of redox gene expression in Staphylococcus aureus ATCC6538 at 5 ug/ml incubated for 2 hrs by RNA sequencing analysis; type: functional, organism-based; conditions: dose 5.0 µg/ml
HeLa = experiment: Cytotoxicity against human HeLa cells assessed as reduction in cell viability measured after 24 hrs by CCK-8 method; type: functional, cell-based
[21] = Toxicity in BALB/c mouse assessed as mouse death at 50 mg/kg, iv measured upto 8 days; type: organism-based; conditions: in vivo, 192 h, time < 8 day
[22] = Binding affinity to Staphylococcus aureus ATCC6538 Phosphatidylethanolamine assessed as dissociation constant by ITC analysis
Staphylococcus aureus [23] = experiment: Bactericidal activity against methicillin-resistant Staphylococcus aureus clinical isolate MRS153 at 5 ug/ml measured upto 150 mins; type: functional, organism-based; conditions: dose 5.0 µg/ml
Staphylococcus aureus [24] = experiment: In vivo antibacterial activity against methicillin-resistant Staphylococcus aureus clinical isolate MRS153 infected in C57BL/6N mouse model assessed as reduction in bacterial load in lung at 3.125 to 12.5 mg/kg, iv measured after 24 hrs; type: functional, organism-based; conditions: dose 3.125-12.5 mg/kg
Staphylococcus aureus [25] = experiment: Induction of membrane morphological changes in Staphylococcus aureus ATCC6538 assessed as cell rupture at 5 times of MIC measured after 0.5 hrs by FE-SEM analysis; type: functional, organism-based
[26] = Toxicity in BALB/c mouse assessed as as effect on spleen at 25 to 50 mg/kg, iv by H and E staining based analysis; type: organism-based; conditions: in vivo, dose 25-50 mg/kg
Peptidoglycan [27] = experiment: Binding affinity to Staphylococcus aureus ATCC6538 peptidoglycan assessed as change in MIC at upto 256 ug/ml measured after 22 hrs; conditions: dose <= 256.0 µg/ml
Cell membrane [28] = experiment: Induction of inner membrane permeabilization in Staphylococcus aureus ATCC6538 assessed as increase in red fluorescence at 5 ug/ml by PI staining based analysis; type: cell membranes; conditions: dose 5.0 µg/ml
Staphylococcus aureus [29] = experiment: Antimicrobial activity against methicillin resistant Staphylococcus aureus clinical isolate MRS273 assessed as reduction in bacterial growth incubated for 24 hrs by two-fold broth dilution method; type: functional
Staphylococcus aureus [30] = experiment: Antimicrobial activity against methicillin resistant Staphylococcus aureus clinical isolate MRS108 assessed as reduction in bacterial growth incubated for 24 hrs by two-fold broth dilution method; type: functional
[31] = Toxicity in BALB/c mouse assessed as as effect on liver at 25 to 50 mg/kg, iv by H and E staining based analysis; type: organism-based; conditions: in vivo, dose 25-50 mg/kg
Staphylococcus aureus [32] = experiment: Antimicrobial activity against methicillin resistant Staphylococcus aureus clinical isolate MRS121 assessed as reduction in bacterial growth incubated for 24 hrs by two-fold broth dilution method; type: functional
Peptidoglycan [33] = experiment: Binding affinity to methicillin resistant Staphylococcus aureus clinical isolate MRS153 peptidoglycan assessed as change in MIC at upto 256 ug/ml measured after 22 hrs; conditions: dose <= 256.0 µg/ml
Staphylococcus aureus [34] = experiment: Antimicrobial activity against Staphylococcus aureus ATCC6538 assessed as increase in ROS levels measured upto 180 mins in presence of chloramphenicol by H2DCFDA probe based flow cytometry; type: functional, organism-based
Staphylococcus aureus [35] = experiment: Antibacterial activity against methicillin-resistant Staphylococcus aureus clinical isolate MRS153 infected in C57BL/6N mouse model assessed as reversal of cell morphology to normal state at 3.125 to 12.5 mg/kg, iv; type: functional, organism-based; conditions: dose 3.125-12.5 mg/kg
Staphylococcus hominis = experiment: Bactericidal activity against multidrug-resistant Staphylococcus hominis at 5 ug/ml measured upto 150 mins; type: functional, organism-based; conditions: dose 5.0 µg/ml
[36] = Hemolytic activity in rabbit Red blood cell assessed as hemolysis incubated for 1 hr by two-fold microdilution method; type: toxicity, cell-based, Oryctolagus cuniculus, Erythrocyte; conditions: red blood cells (erythrocytes)
Staphylococcus aureus [37] = experiment: Antimicrobial activity against methicillin resistant Staphylococcus aureus clinical isolate MRS200 assessed as reduction in bacterial growth incubated for 24 hrs by two-fold broth dilution method; type: functional
Staphylococcus aureus [38] = experiment: Upregulation of ABC transport family genes in Staphylococcus aureus ATCC6538 at 5 ug/ml incubated for 2 hrs by RNA sequencing analysis; type: functional; conditions: dose 5.0 µg/ml

For `O=C(CCC(F)(F)F)N(Cc1cc2ccccc2s1)c1cc(-c2noc(C(F)(F)F)n2)ccc1O`, the MIC (Staphylococcus aureus [1]) was 1 mg/L (≈ 1.94 µM), the Activity (Staphylococcus aureus [2]) was “Active” and the MIC (Staphylococcus aureus [3]) was 2 mg/L (≈ 3.88 µM). For the same compound, the Activity [4] was “Non-Toxic”, the Activity (Staphylococcus aureus [5]) was “Active” and the MIC (Staphylococcus aureus [6]) was 0.5 mg/L (≈ 0.97 µM). The Activity (Staphylococcus aureus [7]) was “Active”, the Activity (Staphylococcus aureus [8]) was “inactive” and the Activity (Staphylococcus aureus [9]) was “Active”. For the same compound, the MIC (Staphylococcus aureus [10]) was 2 mg/L (≈ 3.88 µM), the Activity (Staphylococcus aureus [11]) was “Active” and the MIC (Staphylococcus aureus [12]) was 0.25 mg/L (≈ 0.485 µM). For the same compound, the MIC (Staphylococcus aureus [13]) was 1 mg/L (≈ 1.94 µM), the Activity (Cell membrane [14]) was “Active” and the Activity (Staphylococcus aureus [15]) was “Active”. For the same compound, the Activity (Staphylococcus aureus [16]) was “Active”, the Activity (Staphylococcus aureus [17]) was “inactive” and the IC50 at 24 h [18] was 16.9 mg/L (≈ 32.8 µM). For the same compound, the MIC (Staphylococcus aureus [19]) was 1 mg/L (≈ 1.94 µM), the Activity (Staphylococcus aureus [20]) was “Active” and the IC50 (HeLa) was over 25 mg/L. For the same compound, the Activity [21] was “Non-Toxic”, the Kd [22] was 183 µM and the Activity (Staphylococcus aureus [23]) was “Active”. For the same compound, the Activity (Staphylococcus aureus [24]) was “Active”, the Activity (Staphylococcus aureus [25]) was “Active” and the Activity [26] was “Non-Toxic”. For the same compound, the Activity (Peptidoglycan [27]) was “inactive”, the Activity (Cell membrane [28]) was “Active” and the MIC (Staphylococcus aureus [29]) was 1 mg/L (≈ 1.94 µM). For the same compound, the MIC (Staphylococcus aureus [30]) was 1 mg/L (≈ 1.94 µM), the Activity [31] was “Non-Toxic” and the MIC (Staphylococcus aureus [32]) was 1 mg/L (≈ 1.94 µM). The Activity (Peptidoglycan [33]) was “inactive”, the Activity (Staphylococcus aureus [34]) was “inactive” and the Activity (Staphylococcus aureus [35]) was “Active”. The Activity (Staphylococcus hominis) was “Active”, the HC50 at 1 h [36] was 2400 µg/mL and the MIC (Staphylococcus aureus [37]) was 2 mg/L (≈ 3.88 µM). For the same compound, the Activity (Staphylococcus aureus [38]) was “Active”.
